The source made the active and inactive calls.
What was measured:
[1] = A2780 ovarian cancer cell cytotoxicity, dose response, cytotoxicity control, plate reader, dry powder samples (AID 743046); type: functional, cell-based
[2] = NIH:OVCAR-3 ovarian cancer cell cytotoxicity, dose response, PAX8 inhibitor project, plate reader, dry powder samples (AID 743044); type: functional, cell-based
[3] = inhibitors of PGC1a acetylation in cells, dose response, cell-based, cherry-picked samples (AID 720514); type: functional;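 further: potency may reflect raised or lowered acetylation signal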
[4] = cytotoxicity in OVCAR8 ovarian cancer cells, dose response, PAX8 project, cell-based, plate reader, dry powder samples (AID 743197); type: functional; details: OVCAR-8
[5] = IGROV1 ovarian cancer cell cytotoxicity, dose response, PAX8 inhibitor project, plate reader, dry powder samples (AID 743043); type: functional, cell-based; details: IGROV-1
[6] = IOSE-T80 ovarian epithelial cell cytotoxicity, dose response, cytotoxicity control for PAX8 inhibitor project, plate reader, dry powder samples (AID 743045); type: functional, cell-based
Paired box protein Pax-8 = Paired box protein Pax-8 (Homo sapiens, UniProt Q06710); assay: inhibitors of PAX8-driven TPO luciferase reporter, dose response, RMG-I cells, cherry-pick (AID 687027); type: functional, cell-based;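 further: luciferase reporter driven by Pax8 target thyroperoxidase promoter measured by SteadyGlo luminescence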
Sequence of Paired box protein Pax-8 (Q06710 whole entry): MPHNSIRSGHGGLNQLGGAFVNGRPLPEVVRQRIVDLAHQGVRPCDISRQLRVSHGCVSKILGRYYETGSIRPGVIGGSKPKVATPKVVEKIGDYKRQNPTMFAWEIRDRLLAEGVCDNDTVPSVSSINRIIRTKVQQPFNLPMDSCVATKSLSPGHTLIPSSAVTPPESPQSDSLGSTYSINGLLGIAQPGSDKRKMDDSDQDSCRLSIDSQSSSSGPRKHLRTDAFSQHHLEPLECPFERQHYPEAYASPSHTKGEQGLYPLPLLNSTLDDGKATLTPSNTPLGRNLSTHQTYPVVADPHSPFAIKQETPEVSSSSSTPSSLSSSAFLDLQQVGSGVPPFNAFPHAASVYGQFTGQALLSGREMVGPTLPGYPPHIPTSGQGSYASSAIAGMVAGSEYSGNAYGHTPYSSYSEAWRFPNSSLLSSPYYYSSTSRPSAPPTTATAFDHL

[7] = HepG2 cell cytotoxicity, dose response, cytotoxicity control, cherry-picked samples (AID 1159577); type: functional, cell-based
[8] = P. falciparum Dd2 growth inhibitors, dose response, SYBR Green, cherry-picked samples (AID 1159567); type: functional, cell-based
[9] = target: RNA-editing ligase 1, mitochondrial (Trypanosoma brucei brucei, UniProt P86926); assay: TbREL1 ligase inhibitors, dose response, biochemical, fluorescence, Trypanosoma brucei (AID 1117295); type: functional
Sequence of RNA-editing ligase 1, mitochondrial (P86926 whole entry): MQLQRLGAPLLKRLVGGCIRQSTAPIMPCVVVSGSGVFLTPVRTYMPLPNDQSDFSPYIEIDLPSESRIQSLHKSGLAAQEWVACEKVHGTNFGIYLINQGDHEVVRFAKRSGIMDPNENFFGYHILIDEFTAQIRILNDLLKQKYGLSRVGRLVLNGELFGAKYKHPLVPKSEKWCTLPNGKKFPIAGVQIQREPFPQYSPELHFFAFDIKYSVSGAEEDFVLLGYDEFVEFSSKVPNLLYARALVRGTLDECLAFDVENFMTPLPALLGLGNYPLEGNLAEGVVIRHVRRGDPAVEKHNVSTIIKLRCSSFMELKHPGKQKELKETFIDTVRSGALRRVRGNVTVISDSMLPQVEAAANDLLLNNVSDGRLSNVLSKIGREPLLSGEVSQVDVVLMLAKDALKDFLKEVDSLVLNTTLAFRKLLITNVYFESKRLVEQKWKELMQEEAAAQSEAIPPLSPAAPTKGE

N#Cc1ccc(-c2ccc([C@@H]3[C@@H]4CN(S(=O)(=O)c5ccc(-c6ccccc6)cc5)C[C@H]3N4)cc2)cc1
active: AC50 [1] 17.8 µM | AC50 [2] 28.8 µM | AC50 [3] 1.55 µM | AC50 [4] 17.8 µM | AC50 [5] 34.9 µM | AC50 [6] 23.3 µM | AC50 (Paired box protein Pax-8) 41.9 µM

CO[C@@H]1CN(C)C(=O)c2ccc(NC(=O)Nc3cccc(Cl)c3)cc2OC[C@@H](C)NC[C@H]1C
active: AC50 [7] 30.3 µM | AC50 [8] 5.07 µM

N#C[C@H]1[C@@H](c2ccc(C#CC3CCCC3)cc2)[C@@H](CO)N1S(=O)(=O)c1ccccc1
active: AC50 [7] 24.8 µM | AC50 [8] 3.62 µM

Cc1cc(O)c2c(c1)C(=O)[C@@]13C(=C(O)[C@H]4C(O)[C@@H]1[C@H]1C(O)[C@@H]3C(O)=C3C(=O)c5c(O)cc(C)cc5C(=O)[C@@]314)C2=O (some centres not stated)
active: IC50 [9] 4.1 µM

— ChEMBL document CHEMBL1201862, “PubChem BioAssay data set” (2004)
